Results from PubChem BioAssay AID1963447 (Molecular Pharmacology Branch, DTP, NCI, 2024).

Tested on: 885512-296-R-J2-PDC complex spheroid growth, % test/control
Test: Anticancer human tumor 885512-296-R-J2-PDC patient-derived breast carcinoma cell line growth inhibition [Asc]
Settings: for IC50: curve of first compound; for viability, T/C: stronger effect = lower value
Outline: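 Concentration series start at each agent's clinical Cmax, or at 10 microM when none is established, and drop in half-log steps; agents are applied alone or together to complex spheroids built with HUVEC and hMSC.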
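Also: spheroids exposed to compounds for seven days.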
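For viability, T/C in this document: 100% = DMSO vehicle control wells.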

NC(=O)C(=Cn1cnc(-c2cc(C(F)(F)F)cc(C(F)(F)F)c2)n1)c1cncnc1 + CNC(C)C(=O)NC1CN(S(=O)(=O)c2cccc(S(=O)(=O)N3CCC4CCC(C(=O)NC(c5ccccc5)c5ccccc5)N4C(=O)C(NC(=O)C(C)NC)C3)c2)CCC2CCC(C(=O)NC(c3ccccc3)c3ccccc3)N2C1=O
IC50 (second compound 0.01 µM): 48.8 nM
IC50 (second compound 0.0316 µM): 48.7 nM
IC50 (second compound 0.1 µM): 49 nM
IC50 (second compound 0.316 µM): 49.9 nM
IC50 (second compound 1 µM): 48.9 nM
viability, T/C (second compound 0.01 µM, first compound 0.000949 µM): 96.4%
viability, T/C (second compound 0.01 µM, first compound 0.003 µM): 95.6%
viability, T/C (second compound 0.01 µM, first compound 0.00949 µM): 92.8%
viability, T/C (second compound 0.01 µM, first compound 0.03 µM): 80.9%
viability, T/C (second compound 0.01 µM, first compound 0.0949 µM): 7.83%
viability, T/C (second compound 0.01 µM, first compound 0.3 µM): 1.03%
viability, T/C (second compound 0.0316 µM, first compound 0.000949 µM): 96.1%
viability, T/C (second compound 0.0316 µM, first compound 0.003 µM): 99%
viability, T/C (second compound 0.0316 µM, first compound 0.00949 µM): 102%
viability, T/C (second compound 0.0316 µM, first compound 0.03 µM): 80.4%
viability, T/C (second compound 0.0316 µM, first compound 0.0949 µM): 8.3%
viability, T/C (second compound 0.0316 µM, first compound 0.3 µM): 0.82%
viability, T/C (second compound 0.1 µM, first compound 0.000949 µM): 102%
viability, T/C (second compound 0.1 µM, first compound 0.003 µM): 103%
viability, T/C (second compound 0.1 µM, first compound 0.00949 µM): 110%
viability, T/C (second compound 0.1 µM, first compound 0.03 µM): 81.8%
viability, T/C (second compound 0.1 µM, first compound 0.0949 µM): 7.31%
viability, T/C (second compound 0.1 µM, first compound 0.3 µM): 1.06%
viability, T/C (second compound 0.316 µM, first compound 0.000949 µM): 106%
viability, T/C (second compound 0.316 µM, first compound 0.003 µM): 110%
viability, T/C (second compound 0.316 µM, first compound 0.00949 µM): 107%
viability, T/C (second compound 0.316 µM, first compound 0.03 µM): 83.7%
viability, T/C (second compound 0.316 µM, first compound 0.0949 µM): 7.6%
viability, T/C (second compound 0.316 µM, first compound 0.3 µM): 0.59%
viability, T/C (second compound 1 µM, first compound 0.000949 µM): 101%
viability, T/C (second compound 1 µM, first compound 0.003 µM): 108%
viability, T/C (second compound 1 µM, first compound 0.00949 µM): 110%
viability, T/C (second compound 1 µM, first compound 0.03 µM): 81.8%
viability, T/C (second compound 1 µM, first compound 0.0949 µM): 6.87%
viability, T/C (second compound 1 µM, first compound 0.3 µM): 0.55%

NC1CCC(NC2CC2c2ccccc2)CC1 (stereo not given) + CNC(C)C(=O)NC1CN(S(=O)(=O)c2cccc(S(=O)(=O)N3CCC4CCC(C(=O)NC(c5ccccc5)c5ccccc5)N4C(=O)C(NC(=O)C(C)NC)C3)c2)CCC2CCC(C(=O)NC(c3ccccc3)c3ccccc3)N2C1=O
IC50 (second compound 0.01 µM): > 100 nM
IC50 (second compound 0.0316 µM): > 100 nM
IC50 (second compound 0.1 µM): > 100 nM
IC50 (second compound 0.316 µM): > 100 nM
IC50 (second compound 1 µM): > 100 nM
viability, T/C (second compound 0.01 µM, first compound 0.000316 µM): 114%
viability, T/C (second compound 0.01 µM, first compound 0.001 µM): 116%
viability, T/C (second compound 0.01 µM, first compound 0.00316 µM): 111%
viability, T/C (second compound 0.01 µM, first compound 0.01 µM): 105%
viability, T/C (second compound 0.01 µM, first compound 0.0316 µM): 111%
viability, T/C (second compound 0.01 µM, first compound 0.1 µM): 113%
viability, T/C (second compound 0.0316 µM, first compound 0.000316 µM): 107%
viability, T/C (second compound 0.0316 µM, first compound 0.001 µM): 112%
viability, T/C (second compound 0.0316 µM, first compound 0.00316 µM): 107%
viability, T/C (second compound 0.0316 µM, first compound 0.01 µM): 113%
viability, T/C (second compound 0.0316 µM, first compound 0.0316 µM): 110%
viability, T/C (second compound 0.0316 µM, first compound 0.1 µM): 110%
viability, T/C (second compound 0.1 µM, first compound 0.000316 µM): 107%
viability, T/C (second compound 0.1 µM, first compound 0.001 µM): 91%
viability, T/C (second compound 0.1 µM, first compound 0.00316 µM): 109%
viability, T/C (second compound 0.1 µM, first compound 0.01 µM): 106%
viability, T/C (second compound 0.1 µM, first compound 0.0316 µM): 104%
viability, T/C (second compound 0.1 µM, first compound 0.1 µM): 111%
viability, T/C (second compound 0.316 µM, first compound 0.000316 µM): 108%
viability, T/C (second compound 0.316 µM, first compound 0.001 µM): 110%
viability, T/C (second compound 0.316 µM, first compound 0.00316 µM): 112%
viability, T/C (second compound 0.316 µM, first compound 0.01 µM): 105%
viability, T/C (second compound 0.316 µM, first compound 0.0316 µM): 108%
viability, T/C (second compound 0.316 µM, first compound 0.1 µM): 110%
viability, T/C (second compound 1 µM, first compound 0.000316 µM): 111%
viability, T/C (second compound 1 µM, first compound 0.001 µM): 104%
viability, T/C (second compound 1 µM, first compound 0.00316 µM): 110%
viability, T/C (second compound 1 µM, first compound 0.01 µM): 98.6%
viability, T/C (second compound 1 µM, first compound 0.0316 µM): 105%
viability, T/C (second compound 1 µM, first compound 0.1 µM): 109%
